Our source for the activity values is patent publication US8518980B2, “Treatment of Duchenne muscular dystrophy” (Summit Corporation PLC, priority 2006, dated 2013).

This assay has as its system Utrophin A promoter linked to a luciferase reporter gene (H2K/mdx/Utro A reporter cell line). The assay is described as follows: Luciferase reporter assay (murine H2K cells). Conditions: Mus musculus, H2K mdx. In general terms: Reporter assays use an easily measured gene product as a stand-in for the process of interest.

Regarding `Nc1cccc(-c2nc3ccccc3s2)c1` [Example 602, 3-(Benzo[d]thiazol-2-yl)aniline], the activity at 10 µM fell in the range of 301 to 400%.
For the compound `Cc1ccc(-c2nc3cc(N)ccc3o2)cc1C` [Example 603, 2-(3,4-Dimethylphenyl)benzo[d]oxazol-5-amine], the activity at 10 µM was in the range of 301 to 400%.
`O=[N+]([O-])c1ccc2nc(-c3ccccc3)[nH]c2c1` [Example 604, 6-Nitro-2-phenyl-1H-benzo[d]imidazole]: the activity at 10 µM lay within 301 to 400%.
For `Cc1ccc2[nH]c(-c3ccc([N+](=O)[O-])cc3)nc2c1` [Example 605, 5-Methyl-2-(4-nitrophenyl)-1H-benzo[d]imidazole] the value was 301 to 400%; for `COc1cccc(-c2nc3ccccc3s2)c1` [Example 606, 2-(3-Methoxyphenyl)benzo[d]thiazole], 301 to 400%.
`Cc1cc(-c2nc3ccccc3o2)ccc1[N+](=O)[O-]` [Example 607, 2-(3-Methyl-4-nitrophenyl)benzo[d]oxazole]: the activity at 10 µM was above 401%.
In the case of `c1ccc2sc(-c3ccc4c(c3)OCO4)nc2c1` [Example 608, 2-(Benzo[d][1,3]dioxol-5-yl)benzo[d]thiazole], the activity at 10 µM was above 401%.
As to `CCC(C)c1ccc2oc(-c3ccc(N)cc3)nc2c1` (centres unmarked) [Example 609, 4-(5-Sec-butylbenzo[d]oxazol-2-yl)aniline], the activity at 10 µM was in the range of 301 to 400%.
As for `Cc1cc2nc(-c3ccc(N)cc3O)oc2cc1C` [Example 610, 5-Amino-2-(5,6-dimethylbenzo[d]oxazol-2-yl)phenol], the figure is above 401%.
`Cc1ccc2nc(-c3ccc(C(F)(F)F)cc3)oc2c1` [Example 611, 6-Methyl-2-(4-(trifluoromethyl)phenyl)benzo[d]oxazole]: the activity at 10 µM is 301 to 400%.
For `Cc1ccc2oc(-c3cccs3)nc2c1` [Example 612, 5-Methyl-2-(thiophen-2-yl)benzo[d]oxazole] the value was 201 to 300%; for `Cc1ccc(-c2nc3ccccc3[nH]2)cc1` [Example 613, 2-p-Tolyl-1H-benzo[d]imidazole], 301 to 400%; for `O=C(COc1ccc2c(c1)OCO2)Nc1nc2ccccc2s1` [Example 614, 2-(Benzo[d][1,3]dioxol-5-yloxy)-N-(benzo[d]thiazol-2-yl)acetamide], below 200%.
In the case of `CCn1c(C)nc2cc(C(=O)Nc3ccccc3)ccc21` [Example 615, 1-ethyl-2-methyl-N-phenyl-1H-benzo[d]imidazole-5-carboxamide], the activity at 10 µM was above 401%.
Take `O=C(Nc1nc2ccccc2s1)c1ccccc1Br` [Example 616, N-(benzo[d]thiazol-2-yl)-2-bromobenzamide]: the activity at 10 µM is above 401%.
On to `O=C(CSc1nc2ccccc2s1)N1CCCCC1` [Example 617, 2-(benzo[d]thiazol-2-ylthio)-1-(piperidin-1-yl)ethanone], for which the activity at 10 µM was above 401%.
As for `O=C(Nc1ccc2c(c1)OCO2)c1sc2ccccc2c1Cl` [Example 618, N-(benzo[d][1,3]dioxol-5-yl)-3-chlorobenzo[b]thiophene-2-carboxamide], the activity at 10 µM is above 401%.
As for `COc1ccc(-c2nc3ccccc3o2)cc1N` [Example 619, 5-(benzo[d]oxazol-2-yl)-2-methoxyaniline], the figure is above 401%; as for `Cc1ccc(-c2nc3ccccc3[nH]2)cc1N` [Example 620, 5-(1H-benzo[d]imidazol-2-yl)-2-methylaniline], above 401%; as for `O=C(Nc1ccccc1F)c1sc2ccccc2c1Cl` [Example 621, 3-chloro-N-(2-fluorophenyl)benzo[b]thiophene-2-carboxamide], above 401%.
As to `Nc1cccc(-c2nc3cc(Cl)ccc3o2)c1` [Example 622, 3-(5-chlorobenzo[d]oxazol-2-yl)aniline], the activity at 10 µM is above 401%.
For the compound `Cc1cc2nc(-c3cccc(NC(=O)c4ccco4)c3)oc2cc1C` [Example 623, N-(3-(5,6-dimethylbenzo[d]oxazol-2-yl)phenyl)furan-2-carboxamide], the activity at 10 µM is above 401%.
`CCc1ccc2oc(-c3ccc(C)c(N)c3)nc2c1` [Example 625, 5-(5-ethylbenzo[d]oxazol-2-yl)-2-methylaniline]: the activity at 10 µM is above 401%.
As for `O=C(Nc1nc2ccccc2s1)c1cc2ccccc2o1` [Example 626, N-(benzo[d]thiazol-2-yl)benzofuran-2-carboxamide], the figure is above 401%; as for `Cc1cc(C)c2oc(-c3ccc(Cl)c(N)c3)nc2c1` [Example 627, 2-chloro-5-(5,7-dimethylbenzo[d]oxazol-2-yl)aniline], above 401%; as for `Nc1c(C(=O)Nc2ccc(F)cc2)sc2nc3c(cc12)CCC3` [Example 628, 3-amino-N-(4-fluorophenyl)-6,7-dihydro-5H-cyclopenta[e]thieno[2,3-b]pyridine-2-carboxamide], above 401%.
As to `O=C(Nc1nc2ccc(F)cc2s1)c1ccccc1Br` [Example 629, 2-bromo-N-(6-fluorobenzo[d]thiazol-2-yl)benzamide], the activity at 10 µM is above 401%.
Turning to `COc1ccc2oc(-c3cccc(N)c3)nc2c1` [Example 630, 3-(5-methoxybenzo[d]oxazol-2-yl)aniline], the activity at 10 µM was above 401%.
For the compound `CCC(C)C(=O)Nc1ccc(-c2nc3ccccc3[nH]2)cc1` (centres unmarked) [Example 631, N-(4-(1H-benzo[d]imidazol-2-yl)phenyl)-2-methylbutanamide], the activity at 10 µM is above 401%.
For the compound `Cc1ccc2[nH]c(-c3sc4nc(C)ccc4c3N)nc2c1` [Example 632, 6-methyl-2-(5-methyl-1H-benzo[d]imidazol-2-yl)thieno[2,3-b]pyridin-3-amine], the activity at 10 µM is above 401%.
For `c1ccc(OCc2nc3ccccc3s2)cc1` [Example 633, 2-(phenoxymethyl)benzo[d]thiazole] the value was 301 to 400%; for `CCn1c(C)nc2cc(-c3ccccc3)ccc21` [Example 634, 1-ethyl-2-methyl-5-phenyl-1H-benzo[d]imidazole], 301 to 400%; for `Cc1ccc2nc(-c3ccc(C)c(N)c3)oc2c1` [Example 635, 2-methyl-5-(6-methylbenzo[d]oxazol-2-yl)aniline], 301 to 400%.
As to `Cc1ccc2oc(-c3ccc(Cl)c(N)c3)nc2c1` [Example 636, 2-chloro-5-(5-methylbenzo[d]oxazol-2-yl)aniline], the activity at 10 µM is 301 to 400%.
`Cc1ccc(NC(=O)Nc2nc3ccccc3s2)cc1` [Example 637, 1-(benzo[d]thiazol-2-yl)-3-p-tolylurea]: the activity at 10 µM lay in the range of 301 to 400%.
For the compound `Cc1ccc2nc(-c3ccc(NC(=O)c4cccnc4)cc3)sc2c1` [Example 638, N-(4-(6-methylbenzo[d]thiazol-2-yl)phenyl)nicotinamide], the activity at 10 µM is 301 to 400%.
With `c1ccc2nc(-c3nc4ccccc4s3)ccc2c1` [Example 639, 2-(quinolin-2-yl)benzo[d]thiazole], the activity at 10 µM fell in the range of 301 to 400%.
As to `COc1ccc(CSc2nc3ccccc3[nH]2)cc1` [Example 640, 2-(4-methoxybenzylthio)-1H-benzo[d]imidazole], the activity at 10 µM lay within 301 to 400%.
`O=C(Nc1ccc(-c2nc3ncccc3o2)cc1)c1ccccc1Cl` [Example 641, 2-chloro-N-(4-(oxazolo[4,5-b]pyridin-2-yl)phenyl)benzamide]: the activity at 10 µM is 301 to 400%.
Regarding `CCc1ccc2oc(-c3cccc(NC(C)=O)c3)nc2c1` [Example 642, N-(3-(5-ethylbenzo[d]oxazol-2-yl)phenyl)acetamide], the activity at 10 µM was in the range of 301 to 400%.
Regarding `Cc1ccc2nc(-c3ccc(O)cc3)sc2c1` [Example 643, 4-(6-methylbenzo[d]thiazol-2-yl)phenol], the activity at 10 µM lay within 301 to 400%.
Take `CCC(=O)Nc1cccc(-c2nc3cc(C)ccc3o2)c1` [Example 644, N-(3-(5-methylbenzo[d]oxazol-2-yl)phenyl)propionamide]: the activity at 10 µM was in the range of 301 to 400%.
Take `COc1ccc(CSc2nc3ccccc3n2C)cc1F` [Example 645, 2-(3-fluoro-4-methoxybenzylthio)-1-methyl-1H-benzo[d]imidazole]: the activity at 10 µM fell in the range of 301 to 400%.
As for `Cc1cc2nc(-c3cc(N)ccc3Cl)oc2cc1C` [Example 646, 4-chloro-3-(5,6-dimethylbenzo[d]oxazol-2-yl)aniline], the figure is 301 to 400%; as for `c1cc(NCc2ccncc2)cc(-c2nc3ccccc3s2)c1` [Example 647, 3-(benzo[d]thiazol-2-yl)-N-(pyridin-4-ylmethyl)aniline], 301 to 400%; as for `Cc1ccccc1C(=O)Nc1nc2ccccc2[nH]1` [Example 648, N-(1H-benzo[d]imidazol-2-yl)-2-methylbenzamide], 301 to 400%.
`Cc1cc(-c2nc3cc(N)ccc3o2)ccc1Br` [Example 649, 2-(4-bromo-3-methylphenyl)benzo[d]oxazol-5-amine]: the activity at 10 µM is 301 to 400%.
Consider `Cc1cccc(NC(=O)c2sc3nc(C)cc(C)c3c2N)c1` [Example 650, 3-amino-4,6-dimethyl-N-m-tolylthieno[2,3-b]pyridine-2-carboxamide], for which the activity at 10 µM was in the range of 301 to 400%.
For `CC(C)C(=O)Nc1ccc(-c2nc3ccccc3s2)cc1` [Example 651, N-(4-(benzo[d]thiazol-2-yl)phenyl)isobutyramide] the value was 301 to 400%; for `Cc1ccc2nc(NC(=O)c3ccco3)sc2c1` [Example 652, N-(6-methylbenzo[d]thiazol-2-yl)furan-2-carboxamide], 301 to 400%; for `Nc1cc(-c2nc3ccccc3[nH]2)ccc1Cl` [Example 653, 5-(1H-benzo[d]imidazol-2-yl)-2-chloroaniline], 301 to 400%.
Turning to `Cc1ccc2nc(-c3ccc(NC(=O)CSc4nnc[nH]4)cc3)sc2c1` [Example 654, 2-(4H-1,2,4-triazol-3-ylthio)-N-(4-(6-methylbenzo[d]thiazol-2-yl)phenyl)acetamide], the activity at 10 µM was 301 to 400%.
For the compound `CC(=O)Oc1ccc(C(=O)Nc2ccc(-c3nc4ccccc4[nH]3)cc2)cc1` [Example 655, 4-(4-(1H-benzo[d]imidazol-2-yl)phenylcarbamoyl)phenyl acetate], the activity at 10 µM lay within 301 to 400%.
